# Data: ChEMBL document CHEMBL1821624, “Synthesis, evaluation against Leishmania amazonensis and cytotoxicity assays in macrophages of sixteen new congeners Morita-Baylis-Hillman adducts” (Eur J Med Chem, 2011)
# How the values were obtained:
# Leishmania amazonensis [1] = experiment: Antileishmanial activity against Leishmania amazonensis; type: functional, organism-based
# Leishmania amazonensis [2] = experiment: Antileishmanial activity against Leishmania amazonensis IFLA/BR/67/PH8 promastigotes […] assessed as inhibition of parasite growth after 72 hrs by MTT assay; type: functional, organism-based; conditions: IFLA/BR/67/PH8, 72 h
# [3] = Selectivity index, ratio of CC50 for Swiss mouse peritoneal macrophages to IC50 for Leishmania amazonensis IFLA/BR/67/PH8 promastigotes; type: functional
# [4] = Cytotoxicity against Swiss mouse peritoneal macrophages after 24 hrs by MTT assay; type: cell-based, Peritoneal macrophage cell
IC50 (Leishmania amazonensis [1]) [µM],SMILES,IC50 (Leishmania amazonensis [2]) [µM],Ratio CC50/IC50 [3],CC50 at 24 h [4] [µM]
62,C=C(C(=O)OC)C(O)c1ccccc1[N+](=O)[O-] (centres undefined),,,
,C=C(C(=O)OCCC)C(O)c1ccccc1[N+](=O)[O-] (racemic),28.4,4.75,135
,C=C(C(=O)OCCC)C(O)c1cccc([N+](=O)[O-])c1 (racemic),72.2,1.57,114
,C=C(C(=O)OCCC)C(O)c1ccc([N+](=O)[O-])cc1 (racemic),52,2.33,122
,C=C(C(=O)OCCC)C(O)c1ccccn1 (racemic),194,3.68,715
,C=C(C(=O)OCCC)C(O)c1cccnc1 (racemic),211,1.81,384
,C=C(C(=O)OCCC)C(O)c1ccncc1 (racemic),149,1.83,272
,C=C(C(=O)OCCC)C(O)c1ccc2ccccc2c1 (racemic),54.5,2.59,149
,C=C(C(=O)OCCC)C(O)c1ccc(Br)cc1 (racemic),74.7,1.67,125
,C=C(C(=O)OCCO)C(O)c1ccccc1[N+](=O)[O-] (racemic),20.5,5.43,112
,C=C(C(=O)OCCO)C(O)c1cccc([N+](=O)[O-])c1 (racemic),64.6,1.06,69
,C=C(C(=O)OCCO)C(O)c1ccc([N+](=O)[O-])cc1 (racemic),53,0.88,46.9
,C=C(C(=O)OCCO)C(O)c1ccccn1 (racemic),266,2.81,749
,C=C(C(=O)OCCO)C(O)c1cccnc1 (racemic),324,1.29,418
,C=C(C(=O)OCCO)C(O)c1ccncc1 (racemic),382,1.2,458
,C=C(C(=O)OCCO)C(O)c1ccc2ccccc2c1 (racemic),52.5,2.24,118
,C=C(C(=O)OCCO)C(O)c1ccc(Br)cc1 (racemic),56.7,2.77,157
